Measurements reported in PubChem BioAssay AID1963826 (Molecular Pharmacology Branch, DTP, NCI, 2024).

Test system: 926638-142-R-J1-PDC complex spheroid viability
Assay: Anticancer human tumor 926638-142-R-J1-PDC patient-derived endometrial carcinoma cell line growth inhibition [POLQ]
Details: for IC50: curve of first compound; for viability, T/C: stronger effect = lower value
Method: Multicellular complex tumor spheroid response to Polymerase (POL) inhibitors (novobiocin, ART-558, RP6685) in combination with a variety of drugs and investigational agents in selected tumor cell lines
The POL inhibitors (novobiocin, ART-558, and RP6685) were evaluated both individually and in combination with standard of care and investigational anticancer small molecules within a complex spheroid model of solid tumors. . Complex spheroids include a stromal component modeled by human endothelial cells (HUVEC) and fibroblasts modeled by human mesenchymal stem cells (MSCs). The concentration ranges selected for each drug and investigational agent were based upon clinically achievable concentrations if the clinical Cmax of the agent was known.
Compounds. The drugs and investigational agents: novobiocin (NSC847541), ART-558 (NSC835418), RP-6685 (NSC848927), peposertib (NSC802822), ceralasertib (NSC780249), elimusertib (NSC800525), camonsertib (NSC841442), AZD-1390 (NSC803789), olaparib (NSC753686), talazoparib (NSC767125), rucaparib (NSC756644), sotorasib (NSC818433), MRTX-1133 (NSC836407), SN-38 (NSC673596), topotecan (NSC609699), epotoside (NSC141540), doxorubicin (NSC123127), gemcitabine (NSC613327), 5-fluorouracil (NSC19893), paclitaxel (NSC125973), vemurafenib (NSC761431), MSA-2 (NSC828583), SN-011 (NSC837082), adavosertib (NSC754352), prexasertib (NSC758257), carboplatin (NSC241240) and oxaliplatin (NSC266046), were obtained from the National Cancer Institute (NCI) Developmental Therapeutics Program Chemical Repository (21). The FDA-approved anticancer drug set is available from the Developmental Therapeutics Program at https://dtp.cancer.gov/organization/dscb/obtaining/. […] The stock solutions were prepared in dimethyl sulfoxide (DMSO, Sigma-Aldrich, St. Louis, MO, cat. D2650), except for the platinum compounds which were prepared in saline (Quality Biological, Gaithersburg, MD, cat. 114-055-101), at 800-fold the tested concentration and stored at -70 degrees C prior to their use. All drugs and investigational agents were tested over a range starting from a high concentration at or near the clinical Cmax and decreasing in half-log increments. If the clinical Cmax for an agent had not been determined, the highest concentration tested was 10 microM, except for SN-38, which was tested at a high concentration of 1 microM.
Cell Culture. All cells were maintained in an incubator at 37 degrees C and 5% CO2 with 95% humidity. The PDC lines were cultured according to standard operating procedures established by the NCI PDMR (https://pdmr.cancer.gov). Table 3 of the manuscript, lists the cell lines along with the number of the three cell types plated to form the mct-spheroids and media for tumor cell growth. After thawing, all PDC lines, except 997537-175-T-J1-PDC and 415267-285-R-J2-PDC, were cultured in Matrigel-coated flasks prepared with a working solution of 1X Ham's F-12 nutrient mix, without supplementation (Thermo Fisher Scientific, cat. 11765054), 100 U/mL penicillin-streptomycin (Thermo Fisher Scientific, cat. 15140122), and 2.5% Matrigel (Corning Inc., Corning, NY, cat. 354248) for the first three passages. The two PDC lines 997537-175-T-J1-PDC and 415267-285-R-J2-PDC were cultured on uncoated flasks. The 857933-349-R-J2-PDC line was cultured in 6C/Colon 1B media containing advanced DMEM/F-12 (Thermo Fisher Scientific, cat. 12634028), 10 mM HEPES (Thermo Fisher Scientific, cat. 15630080), 1X GlutaMAX supplement (Thermo Fisher Scientific, cat. 35050061), 0.1 mg/mL primocin (InvivoGen, San Diego, CA, cat. ant-pm-2), 10% defined fetal bovine serum, heat inactivated (HyClone Laboratories Inc., Logan, UT, cat. SH30070.03HI), 50% L-WRN conditioned media (ATCC, cat. CRL-3276), 1.25 mM N-Acetyl-L-cysteine (Sigma-Aldrich, cat. A9165), 10 mM nicotinamide (Sigma-Aldrich, cat. N0636), 1X B-27 supplement (Thermo Fisher Scientific, cat. 17504044), 1X N-2 supplement (Thermo Fisher Scientific, cat. […]

[1] = second compound 0.0316 µM, first compound 0.0316 µM
[2] = second compound 0.0316 µM, first compound 0.1 µM
[3] = second compound 0.0316 µM, first compound 0.316 µM
[4] = second compound 0.0316 µM, first compound 1 µM
[5] = second compound 0.1 µM, first compound 0.0316 µM
[6] = second compound 0.1 µM, first compound 0.1 µM
[7] = second compound 0.1 µM, first compound 0.316 µM
[8] = second compound 0.1 µM, first compound 1 µM
[9] = second compound 0.316 µM, first compound 0.0316 µM
[10] = second compound 0.316 µM, first compound 0.1 µM
[11] = second compound 0.316 µM, first compound 0.316 µM
[12] = second compound 0.316 µM, first compound 1 µM
[13] = second compound 1 µM, first compound 0.0316 µM
[14] = second compound 1 µM, first compound 0.1 µM
[15] = second compound 1 µM, first compound 0.316 µM
[16] = second compound 1 µM, first compound 1 µM
[17] = second compound 3.16 µM, first compound 0.0316 µM
[18] = second compound 3.16 µM, first compound 0.1 µM
[19] = second compound 3.16 µM, first compound 0.316 µM
[20] = second compound 3.16 µM, first compound 1 µM
[21] = second compound 10 µM, first compound 0.0316 µM
[22] = second compound 10 µM, first compound 0.1 µM
[23] = second compound 10 µM, first compound 0.316 µM
[24] = second compound 10 µM, first compound 1 µM
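Also: spheroids exposed to drugs for one week before readout.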
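For viability, T/C in this document: percent viability relative to DMSO vehicle control wells set as 100%.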

COc1cccc(OCCCN)c1-c1cc(Nc2cnc(C#N)cn2)n[nH]1 + COC1C(OC(N)=O)C(O)C(Oc2ccc3c(O)c(NC(=O)c4ccc(O)c(CC=C(C)C)c4)c(=O)oc3c2C)OC1(C)C
IC50 (second compound 0.0316 µM): 0.146 µM | IC50 (second compound 0.1 µM): 0.122 µM | IC50 (second compound 0.316 µM): 0.113 µM | IC50 (second compound 1 µM): 0.107 µM | IC50 (second compound 3.16 µM): 0.0705 µM | IC50 (second compound 10 µM): 0.0777 µM | viability, T/C (second compound 0.0316 µM, first compound 0.00316 µM): 104% | viability, T/C (second compound 0.0316 µM, first compound 0.01 µM): 96.4% | viability, T/C [1]: 65.9% | viability, T/C [2]: 61.8% | viability, T/C [3]: 36% | viability, T/C [4]: 24.8% | viability, T/C (second compound 0.1 µM, first compound 0.00316 µM): 111% | viability, T/C (second compound 0.1 µM, first compound 0.01 µM): 79% | viability, T/C [5]: 68.3% | viability, T/C [6]: 56.6% | viability, T/C [7]: 39% | viability, T/C [8]: 31.5% | viability, T/C (second compound 0.316 µM, first compound 0.00316 µM): 94.2% | viability, T/C (second compound 0.316 µM, first compound 0.01 µM): 74.5% | viability, T/C [9]: 62.7% | viability, T/C [10]: 51.4% | viability, T/C [11]: 42.2% | viability, T/C [12]: 35.2% | viability, T/C (second compound 1 µM, first compound 0.00316 µM): 87.7% | viability, T/C (second compound 1 µM, first compound 0.01 µM): 77.9% | viability, T/C [13]: 47.3% | viability, T/C [14]: 56.4% | viability, T/C [15]: 49.1% | viability, T/C [16]: 29.6% | viability, T/C (second compound 3.16 µM, first compound 0.00316 µM): 92.6% | viability, T/C (second compound 3.16 µM, first compound 0.01 µM): 89.3% | viability, T/C [17]: 60.4% | viability, T/C [18]: 46.2% | viability, T/C [19]: 46.5% | viability, T/C [20]: 31.7% | viability, T/C (second compound 10 µM, first compound 0.00316 µM): 81.2% | viability, T/C (second compound 10 µM, first compound 0.01 µM): 80.8% | viability, T/C [21]: 65% | viability, T/C [22]: 44.5% | viability, T/C [23]: 36.9% | viability, T/C [24]: 27.9%

O=C(c1cc(Cc2n[nH]c(=O)c3ccccc23)ccc1F)N1CCN(C(=O)C2CC2)CC1 + COC1C(OC(N)=O)C(O)C(Oc2ccc3c(O)c(NC(=O)c4ccc(O)c(CC=C(C)C)c4)c(=O)oc3c2C)OC1(C)C
IC50 (second compound 0.0316 µM): > 10 µM | IC50 (second compound 0.1 µM): > 10 µM | IC50 (second compound 0.316 µM): > 10 µM | IC50 (second compound 1 µM): > 10 µM | IC50 (second compound 3.16 µM): > 10 µM | IC50 (second compound 10 µM): > 10 µM | viability, T/C [1]: 86% | viability, T/C [2]: 115% | viability, T/C [3]: 95.5% | viability, T/C [4]: 115% | viability, T/C (second compound 0.0316 µM, first compound 3.16 µM): 84.3% | viability, T/C (second compound 0.0316 µM, first compound 10 µM): 89.7% | viability, T/C [5]: 92.3% | viability, T/C [6]: 95.5% | viability, T/C [7]: 108% | viability, T/C [8]: 95.6% | viability, T/C (second compound 0.1 µM, first compound 3.16 µM): 89.3% | viability, T/C (second compound 0.1 µM, first compound 10 µM): 76.8% | viability, T/C [9]: 92.3% | viability, T/C [10]: 95.5% | viability, T/C [11]: 101% | viability, T/C [12]: 98.1% | viability, T/C (second compound 0.316 µM, first compound 3.16 µM): 80.3% | viability, T/C (second compound 0.316 µM, first compound 10 µM): 80.1% | viability, T/C [13]: 117% | viability, T/C [14]: 91.1% | viability, T/C [15]: 110% | viability, T/C [16]: 97.5% | viability, T/C (second compound 1 µM, first compound 3.16 µM): 80.7% | viability, T/C (second compound 1 µM, first compound 10 µM): 89.3% | viability, T/C [17]: 98.2% | viability, T/C [18]: 102% | viability, T/C [19]: 89.4% | viability, T/C [20]: 111% | viability, T/C (second compound 3.16 µM, first compound 3.16 µM): 99.6% | viability, T/C (second compound 3.16 µM, first compound 10 µM): 85.7% | viability, T/C [21]: 95.5% | viability, T/C [22]: 89.3% | viability, T/C [23]: 92.2% | viability, T/C [24]: 116% | viability, T/C (second compound 10 µM, first compound 3.16 µM): 83.1% | viability, T/C (second compound 10 µM, first compound 10 µM): 96%
